Values joined by “and” are separate entries in the source; they are usually repeats but may differ in a detail not shown here. Identical values can stand only once. “Also recorded” adds a separate entry of the source.
Key:
Type in all cases: cell-based
α9 nAChR = biological target: T1, α9 nAChR (Homo sapiens, UniProt Q9UGM1); test: Two-electrode voltage-clamp, agonist concentration-response, α9 nAChR in Xenopus oocytes; details: for α9 Imax: relative to ACh (Imax = 1)
T1 construct: expressed in transfected cells; host or cells: Xenopus laevis oocytes, injected with in vitro transcribed RNA
T1 sequence (Q9UGM1 26-479 limits assumed): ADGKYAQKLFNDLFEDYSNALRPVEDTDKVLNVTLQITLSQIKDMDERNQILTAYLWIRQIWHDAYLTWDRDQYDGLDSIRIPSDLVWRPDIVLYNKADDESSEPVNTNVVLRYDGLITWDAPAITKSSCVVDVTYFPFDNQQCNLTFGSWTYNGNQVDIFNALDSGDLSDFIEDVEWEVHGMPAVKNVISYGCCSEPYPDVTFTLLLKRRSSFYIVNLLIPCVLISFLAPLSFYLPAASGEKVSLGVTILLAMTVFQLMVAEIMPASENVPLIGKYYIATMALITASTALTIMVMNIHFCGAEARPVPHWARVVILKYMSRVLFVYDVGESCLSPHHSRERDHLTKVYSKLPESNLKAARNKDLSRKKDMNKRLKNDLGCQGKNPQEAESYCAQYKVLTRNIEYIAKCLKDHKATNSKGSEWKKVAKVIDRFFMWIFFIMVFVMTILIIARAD
Description: (§1) Electrophysiology: Xenopus oocytes were microinjected with RNAs to produce functional nAChR which were characterized by two-electrode voltage-clamp measurements. FIGS. 5A-7D present concentration-response curves for the new compounds evaluated with α7, α9, and α9α10 receptors. Table 1 presents the values for Imax and EC50 with these receptors and Table 2 summarizes inhibition data for the compounds with heteromeric nAChR.
(§2) Molecular Biology: Plasmid DNAs encoding the human α7 and heteromeric nAChR were obtained from Jon Lindstrom (University of Pennsylvania, Philadelphia, PA). Mouse muscle subunit clones were obtained from Jim Boulter (Salk Institute, La Jolla CA) and Paul Gardner (Dartmouth, Hanover NH). The human resistance-to-cholinesterase 3 ([…]) clone was obtained from Millet Treinin (Hebrew University, Jerusalem, Israel) and RNA co-injected with α7 to improve the level and speed of receptor expression without affecting their pharmacological properties. Plasmid DNA encoding the human α10 nAChR was obtained from J. Michael McIntosh. Plasmid DNA encoding the human α9 nAChR and the human receptor-associated protein of the synapse (RAPSYN) with codon optimization for expression in Xenopus laevis were obtained from Katrin Richter. RAPSYN RNA was co-injected with the α9 and α10 to improve expression (Richter et al., (2022) Front. Cell Neurosci. 16: 779081). After linearization and purification of the plasmid DNAs, RNAs were prepared using the mMessage mMachine in vitro RNA transcription kit (Ambion, Austin, TX). Frogs were maintained in the Animal Care Service facility of the University of Florida, and all procedures were approved by the University of Florida Institutional Animal Care and Use Committee (approval number 202002669). In brief, the animals were first anesthetized for 15-20 min in 1.5 l frog tank water containing 1 g of MS-222 buffered with sodium bicarbonate. Oocytes were obtained surgically from mature female Xenopus laevis (Nasco, Ft. Atkinson WI, USA) and treated with 1.4 mg/ml type 1 collagenase (Worthington Biochemicals, Freehold NJ, USA) for 2-4 h at rt in Ca2+-free Barth's solution (88 mM NaCl, 1 mM KCl, 2.38 mM NaHCO3, 0.82 mM MgSO4, 15 mM HEPES, and 12 mg/l tetracycline, pH 7.6) to remove the ovarian tissue and the follicular layers. Stage V oocytes were injected with 4-6 ng CHRNA7 RNA and 2-3 ng RIC3 RNA (2:1 ratio) in 50 nl water, or with 12 ng CHRNA9 RNA and 3 ng RAPSN RNA, or along with 12 ng CHRNA10 RNA in 50 nl water. Oocytes were maintained in Barth's solution containing 0.32 mM Ca(NO3)2 and 0.41 mM CaCl2, and recordings were conducted 2-20 days after injection.
(§3) Electrophysiology: Two-electrode voltage-clamp experiments were conducted using OpusXpress 6000A (Molecular Devices, Union City CA, USA). Both the voltage and current electrodes were filled with 3 M KCl. Oocytes were voltage-clamped at −60 mV at rt. The oocytes were perfused with Ringer's solution (115 mM NaCl, 2.5 mM KCl, 1.8 mM CaCl2, 10 mM HEPES, 1 μM atropine, pH 7.2) at 2 ml/min. […] Drug applications were 12 s in duration followed by 181 s washout periods.
(§4) The responses were calculated as both peak-current amplitudes and net charge. Data were collected at 50 Hz, filtered at 20 Hz, and analyzed by Clampfit (Molecular Devices) and Excel (Microsoft, Redmond, WA, United States). Data are expressed as means±SEM from at least five oocytes for each experiment and plotted with Kaleidagraph 4.5.2 (Abelbeck Software, Reading, PA, United States). Each episode of data acquisition was a total of 210 s and included an initial 30 s period used to define the baseline for the drug-evoked responses. After 30 s, drugs were applied, and the following 120 s were defined as the drug response period for analysis. […] The values for the curve fits were generated using the Levenberg-Marquardt algorithm to obtain the best Chi-Square fit to the Hill equation using the Kaleidagraph 4.5.2 plotting program. […]

α9α10 nAChR = biological target: T2, α9α10 nAChR (Homo sapiens, UniProt Q9GZZ6+Q9UGM1); test: Two-electrode voltage-clamp, agonist concentration-response, α9α10 nAChR in Xenopus oocytes; details: for α9α10 Imax: relative to ACh (Imax = 1)
T2 construct: expressed in transfected cells; host or cells: Xenopus laevis oocytes, injected with in vitro transcribed RNA
Description: as §1, §2, §3, §4

α7 nAChR [1] = biological target: T3, α7 nAChR (Homo sapiens, UniProt P36544); test: Two-electrode voltage-clamp, agonist concentration-response, α7 nAChR in Xenopus oocytes; details: for EC50 / α7 Imax: net charge, ± standard error of fit; for α7 Imax: relative to ACh (Imax = 1)
T3 construct: expressed in transfected cells; host or cells: Xenopus laevis oocytes, injected with in vitro transcribed RNA
T3 sequence (P36544 23-502): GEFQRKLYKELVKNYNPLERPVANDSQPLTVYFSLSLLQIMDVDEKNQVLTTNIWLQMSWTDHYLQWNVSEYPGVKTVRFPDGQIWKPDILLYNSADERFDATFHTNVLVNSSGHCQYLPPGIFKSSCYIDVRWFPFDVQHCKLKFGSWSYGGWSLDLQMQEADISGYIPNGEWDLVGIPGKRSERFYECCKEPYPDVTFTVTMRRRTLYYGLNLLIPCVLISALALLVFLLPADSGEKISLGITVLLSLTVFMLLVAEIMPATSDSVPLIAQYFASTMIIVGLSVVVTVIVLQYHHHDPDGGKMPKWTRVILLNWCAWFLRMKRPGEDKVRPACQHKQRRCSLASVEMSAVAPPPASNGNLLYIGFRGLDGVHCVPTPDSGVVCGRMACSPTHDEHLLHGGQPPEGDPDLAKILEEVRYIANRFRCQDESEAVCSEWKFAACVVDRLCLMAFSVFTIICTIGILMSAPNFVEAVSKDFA
Description: as §1
(§5) Molecular Biology: Plasmid DNAs encoding the human α7 and heteromeric nAChR were obtained from Jon Lindstrom (University of Pennsylvania, Philadelphia, PA). Mouse muscle subunit clones were obtained from Jim Boulter (Salk Institute, La Jolla CA) and Paul Gardner (Dartmouth, Hanover NH). […] Plasmid DNA encoding the human α10 nAChR was obtained from J. Michael McIntosh. Plasmid DNA encoding the human α9 nAChR and the human receptor-associated protein of the synapse (RAPSYN) with codon optimization for expression in Xenopus laevis were obtained from Katrin Richter. […] After linearization and purification of the plasmid DNAs, RNAs were prepared using the mMessage mMachine in vitro RNA transcription kit (Ambion, Austin, TX). […] Oocytes were maintained in Barth's solution containing 0.32 mM Ca(NO3)2 and 0.41 mM CaCl2, and recordings were conducted 2-20 days after injection.
(§6) Electrophysiology: Two-electrode voltage-clamp experiments were conducted using OpusXpress 6000A (Molecular Devices, Union City CA, USA). Both the voltage and current electrodes were filled with 3 M KCl. Oocytes were voltage-clamped at −60 mV at rt.
(§7) The responses were calculated as both peak-current amplitudes and net charge. Data were collected at 50 Hz, filtered at 20 Hz, and analyzed by Clampfit (Molecular Devices) and Excel (Microsoft, Redmond, WA, United States). Data are expressed as means±SEM from at least five oocytes for each experiment and plotted with Kaleidagraph 4.5.2 (Abelbeck Software, Reading, PA, United States). Each episode of data acquisition was a total of 210 s and included an initial 30 s period used to define the baseline for the drug-evoked responses. After 30 s, drugs were applied, and the following 120 s were defined as the drug response period for analysis. […] The values for the curve fits were generated using the Levenberg-Marquardt algorithm to obtain the best Chi-Square fit to the Hill equation using the Kaleidagraph 4.5.2 plotting program. The errors in the tables are the calculated standard errors of the fit parameters based on the goodness of fit.

α7 nAChR [2] = biological target: T3, α7 nAChR; test: α7 responses to drugs co-applied with the PAM PNU-120596 (silent agonism); details: drug 30 μM + 10 μM PNU-120596; normalized to 30 μM ACh + 10 μM PNU-120596
Description: as §5, §6, §7

α3β4 nAChR = biological target: T4, α3β4 nAChR (Homo sapiens, UniProt P30926+P32297); test: Inhibition of control ACh responses by co-application, α3β4 nAChR in oocytes; details: 3 μM compound co-applied with ACh; fraction of control ACh response
T4 construct: expressed in transfected cells; host or cells: Xenopus laevis oocytes
T4 sequence (P32297 32-505): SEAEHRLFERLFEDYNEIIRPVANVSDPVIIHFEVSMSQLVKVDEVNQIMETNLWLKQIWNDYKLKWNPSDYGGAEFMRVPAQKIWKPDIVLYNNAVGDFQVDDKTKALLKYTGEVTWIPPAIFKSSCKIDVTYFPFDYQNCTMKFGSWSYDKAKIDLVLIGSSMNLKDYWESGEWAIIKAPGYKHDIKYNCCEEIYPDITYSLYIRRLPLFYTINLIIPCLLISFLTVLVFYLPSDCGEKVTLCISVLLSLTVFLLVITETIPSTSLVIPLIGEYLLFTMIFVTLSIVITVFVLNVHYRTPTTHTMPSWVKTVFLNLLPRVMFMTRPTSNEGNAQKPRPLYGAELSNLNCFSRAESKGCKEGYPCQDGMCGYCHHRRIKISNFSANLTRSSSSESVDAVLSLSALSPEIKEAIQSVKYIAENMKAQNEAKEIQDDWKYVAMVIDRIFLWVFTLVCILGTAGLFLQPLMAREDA
T4 sequence (P30926 22-498): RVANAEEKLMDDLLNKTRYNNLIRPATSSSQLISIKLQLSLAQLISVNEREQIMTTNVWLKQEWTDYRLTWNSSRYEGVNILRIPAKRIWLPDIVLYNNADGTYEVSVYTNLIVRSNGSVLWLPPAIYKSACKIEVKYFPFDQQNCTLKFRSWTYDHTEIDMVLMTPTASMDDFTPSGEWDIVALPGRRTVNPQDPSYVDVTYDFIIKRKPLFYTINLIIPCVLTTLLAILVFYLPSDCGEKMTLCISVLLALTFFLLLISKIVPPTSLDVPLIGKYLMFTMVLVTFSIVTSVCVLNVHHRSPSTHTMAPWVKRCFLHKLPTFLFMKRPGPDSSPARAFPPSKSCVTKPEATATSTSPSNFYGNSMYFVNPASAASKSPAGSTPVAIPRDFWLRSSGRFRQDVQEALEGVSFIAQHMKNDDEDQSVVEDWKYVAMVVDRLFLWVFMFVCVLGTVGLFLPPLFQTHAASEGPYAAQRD
Protocol: (§8) Initial profiling against heteromeric receptors: The test compounds for their ability to activate or inhibit other nAChR subtypes were evaluated. Agonist activity was evaluated by applying the compounds at 100 or 30 μM to human α4β2 and α3β4 as well as to mouse muscle α1β1εδ nAChR expressed in Xenopus oocytes. […] The inhibitory activity was generally low (Table 3).
as §2, §3, §7

α4β2 nAChR = biological target: T5, α4β2 nAChR (Homo sapiens, UniProt P17787+P43681); test: Inhibition of control ACh responses by co-application, α4β2 nAChR in oocytes; details: 3 μM compound co-applied with ACh; fraction of control ACh response
T5 construct: expressed in transfected cells; host or cells: Xenopus laevis oocytes
T5 sequence (P43681 29-627 limits assumed): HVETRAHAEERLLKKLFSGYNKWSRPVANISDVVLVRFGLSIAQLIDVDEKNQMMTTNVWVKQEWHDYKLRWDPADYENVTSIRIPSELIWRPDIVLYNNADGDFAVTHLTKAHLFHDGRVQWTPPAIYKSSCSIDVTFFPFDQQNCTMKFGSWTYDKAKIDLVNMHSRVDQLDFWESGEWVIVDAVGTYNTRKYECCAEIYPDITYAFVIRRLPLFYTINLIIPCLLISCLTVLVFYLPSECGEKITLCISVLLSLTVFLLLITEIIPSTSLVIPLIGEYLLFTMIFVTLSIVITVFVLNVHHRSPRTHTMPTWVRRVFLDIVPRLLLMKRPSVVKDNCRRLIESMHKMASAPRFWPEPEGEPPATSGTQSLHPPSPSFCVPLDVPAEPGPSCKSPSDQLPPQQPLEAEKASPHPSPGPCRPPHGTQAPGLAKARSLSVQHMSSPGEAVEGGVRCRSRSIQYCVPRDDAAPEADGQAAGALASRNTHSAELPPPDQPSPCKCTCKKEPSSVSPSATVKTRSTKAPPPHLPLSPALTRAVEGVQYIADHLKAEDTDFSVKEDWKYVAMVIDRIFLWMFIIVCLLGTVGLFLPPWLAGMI
T5 sequence (P17787 26-502): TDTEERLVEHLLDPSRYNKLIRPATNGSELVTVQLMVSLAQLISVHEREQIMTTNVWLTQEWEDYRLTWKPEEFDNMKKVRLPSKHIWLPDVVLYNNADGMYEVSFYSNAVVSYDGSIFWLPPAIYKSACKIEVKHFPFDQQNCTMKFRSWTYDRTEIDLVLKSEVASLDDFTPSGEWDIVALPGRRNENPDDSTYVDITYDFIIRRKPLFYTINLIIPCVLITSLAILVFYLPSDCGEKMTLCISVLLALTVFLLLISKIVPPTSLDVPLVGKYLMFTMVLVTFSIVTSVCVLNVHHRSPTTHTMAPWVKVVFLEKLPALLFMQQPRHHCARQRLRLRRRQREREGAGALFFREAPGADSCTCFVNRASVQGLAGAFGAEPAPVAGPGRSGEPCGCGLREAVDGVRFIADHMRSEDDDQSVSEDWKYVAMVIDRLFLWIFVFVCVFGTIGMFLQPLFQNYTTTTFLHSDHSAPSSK
Protocol: as §8, §2, §3, §7

α1β1εδ nAChR = biological target: T6, α1β1εδ nAChR (Mus musculus, UniProt P02716+P04756+P09690+P20782); test: Inhibition of control ACh responses by co-application, muscle α1β1εδ nAChR in oocytes; details: 3 μM compound co-applied with ACh; fraction of control ACh response
T6 construct: expressed in transfected cells; host or cells: Xenopus laevis oocytes
T6 sequence (P04756 21-457): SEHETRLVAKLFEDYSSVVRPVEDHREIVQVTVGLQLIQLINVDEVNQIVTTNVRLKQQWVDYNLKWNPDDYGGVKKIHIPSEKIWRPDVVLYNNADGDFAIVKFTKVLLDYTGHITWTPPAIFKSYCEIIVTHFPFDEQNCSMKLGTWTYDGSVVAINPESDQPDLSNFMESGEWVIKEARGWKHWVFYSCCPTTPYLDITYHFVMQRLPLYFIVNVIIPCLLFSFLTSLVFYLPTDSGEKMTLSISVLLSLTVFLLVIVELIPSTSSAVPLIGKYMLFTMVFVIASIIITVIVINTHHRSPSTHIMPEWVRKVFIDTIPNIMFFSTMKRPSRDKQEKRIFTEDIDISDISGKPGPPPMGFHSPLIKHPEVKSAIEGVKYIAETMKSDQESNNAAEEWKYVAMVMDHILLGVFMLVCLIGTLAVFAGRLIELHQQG
T6 sequence (P09690 24-501): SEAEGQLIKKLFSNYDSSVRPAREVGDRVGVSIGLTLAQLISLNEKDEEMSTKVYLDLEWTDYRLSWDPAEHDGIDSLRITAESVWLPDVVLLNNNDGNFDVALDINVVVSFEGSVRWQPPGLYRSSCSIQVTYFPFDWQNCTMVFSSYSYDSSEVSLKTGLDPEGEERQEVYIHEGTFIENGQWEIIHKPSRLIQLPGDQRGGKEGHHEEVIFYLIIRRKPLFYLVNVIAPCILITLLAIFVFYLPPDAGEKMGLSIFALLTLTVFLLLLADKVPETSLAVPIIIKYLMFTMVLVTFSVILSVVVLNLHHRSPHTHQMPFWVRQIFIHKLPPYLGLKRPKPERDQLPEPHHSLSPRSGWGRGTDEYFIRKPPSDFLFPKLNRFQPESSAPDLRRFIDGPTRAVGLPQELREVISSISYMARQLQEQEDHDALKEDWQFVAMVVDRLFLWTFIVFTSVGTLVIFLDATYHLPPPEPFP
T6 sequence (P20782 21-493): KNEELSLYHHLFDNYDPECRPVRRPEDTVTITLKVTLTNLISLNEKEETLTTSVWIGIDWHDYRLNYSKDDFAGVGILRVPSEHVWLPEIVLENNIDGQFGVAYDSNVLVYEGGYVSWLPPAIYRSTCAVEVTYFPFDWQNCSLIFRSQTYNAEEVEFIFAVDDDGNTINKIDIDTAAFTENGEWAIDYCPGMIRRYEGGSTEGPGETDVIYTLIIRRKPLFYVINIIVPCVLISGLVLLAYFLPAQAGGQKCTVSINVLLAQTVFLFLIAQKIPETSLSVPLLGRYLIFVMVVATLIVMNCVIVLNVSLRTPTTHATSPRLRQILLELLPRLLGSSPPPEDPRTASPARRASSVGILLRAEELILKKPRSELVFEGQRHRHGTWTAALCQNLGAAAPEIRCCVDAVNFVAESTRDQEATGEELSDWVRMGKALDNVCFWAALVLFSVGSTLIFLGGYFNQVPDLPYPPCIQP
T6 sequence (P02716 25-520): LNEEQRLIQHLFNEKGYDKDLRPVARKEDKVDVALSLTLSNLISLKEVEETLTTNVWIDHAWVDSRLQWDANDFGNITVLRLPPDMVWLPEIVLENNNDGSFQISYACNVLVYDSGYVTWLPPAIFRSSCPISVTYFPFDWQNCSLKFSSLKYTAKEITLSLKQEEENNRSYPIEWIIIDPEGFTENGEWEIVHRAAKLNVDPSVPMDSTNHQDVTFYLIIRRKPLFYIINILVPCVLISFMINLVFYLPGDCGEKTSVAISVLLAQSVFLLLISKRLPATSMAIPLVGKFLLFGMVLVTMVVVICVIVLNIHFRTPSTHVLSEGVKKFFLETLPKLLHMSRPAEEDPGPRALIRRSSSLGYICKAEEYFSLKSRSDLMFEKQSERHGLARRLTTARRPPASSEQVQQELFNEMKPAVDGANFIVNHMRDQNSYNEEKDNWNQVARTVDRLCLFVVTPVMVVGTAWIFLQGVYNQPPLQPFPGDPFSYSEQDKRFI
Protocol: as §8, §2, §3, §7

[3] = 3e vs larger ammonium analogs, 3h relative to 3g
[4] = peak currents, ± standard error of fit

SMILES | Agonist character / efficacy at α9 (α9 nAChR) | Fold loss of potency at α9 relative to comparator compound (α9 nAChR; [3]) | EC50 (α9 nAChR; [4]) | α9 Imax (α9 nAChR; [4]) | Agonist character / efficacy at α9α10 (α9α10 nAChR) | Fold loss of potency at α9α10 relative to comparator compound (α9α10 nAChR; [3]) | EC50 (α9α10 nAChR; [4]) | α9α10 Imax (α9α10 nAChR; [4]) | EC50 (α7 nAChR [1]) | α7 Imax (α7 nAChR [1]) | Response co-applied with PNU-120596, normalized to ACh co-applied with PNU-120596 (α7 nAChR [2]) | Effect of co-application on the control ACh responses, α3β4 (α3β4 nAChR) | Effect of co-application on the control ACh responses, α4β2 (α4β2 nAChR) | Effect of co-application on the control ACh responses, α1β1εδ (α1β1εδ nAChR) | α9 EC50 (α9 nAChR; [4]) | α9α10 EC50 (α9α10 nAChR; [4]) | Agonist character / efficacy at α7 (α7 nAChR [1])
Cc1cccc(NC(=O)c2ccc(N3CC[N+](C)(C)CC3)cc2)n1.[I-] [Compound 3e, 1,1-dimethyl-4-(4-((6-methylpyridin-2-yl)carbamoyl)phenyl)piperazin-1-ium iodide] | partial agonist | about 10 fold | 7 ± 6 µM | 0.51 ± 0.07 | fully efficacious agonist | about 10 fold | 4.2 ± 1.5 µM | 0.89 ± 0.07 | 4.3 ± 1 µM | 0.57 ± 0.03 and 0.57 | 0.16 | 0.838 ± 0.037 | 0.912 ± 0.038 | 0.709 ± 0.091 |  |  | 
CC[N+]1(C)CCN(c2ccc(C(=O)Nc3cccc(C)n3)cc2)CC1.[I-] [Compound 3f, 1-ethyl-1-methyl-4-(4-((6-methylpyridin-2-yl)carbamoyl)phenyl)piperazin-1-ium iodide] | full agonist |  |  | 1.19±0.03 |  |  |  | 0.92±0.04 | 4.3 to 6.4 µM | 0.40 ± 0.02 and 0.4 | 0.13 | 0.849 ± 0.018 | 0.858 ± 0.045 | 0.413 ± 0.070 |  |  | 
CC[N+]1(CC)CCN(c2ccc(-c3ncco3)cc2)CC1.[I-] [Compound 3g, 1,1-diethyl-4-(4-(oxazol-2-yl)phenyl)piperazin-1-ium iodide] | full agonism; also recorded: full agonist |  | 0.38 ± 0.17 µM | 1.29±0.13 | strong partial agonist |  | 0.7 ± 0.03 µM | 0.83±0.01 | 1.7 ± 0.4 µM | 0.12 ± 0.01 and 0.12 | 0.05 | 0.507 ± 0.032 | 0.823 ± 0.043 | 0.353 ± 0.071 | submicromolar potency | submicromolar potency | strongly diminished activity; also recorded: very weak partial agonists
